From patent publication EP4722203A1, “3,4-DIHYDROPHTHALAZIN-1(2H)-ONE DERIVATIVE, AND PREPARATION METHOD THEREFOR AND USE THEREOF” (Academy of Military Medical Sciences, priority 2023, dated 2024)

Columns and labels:
[1] = system: human multiple myeloma NCI-H929 xenograft tumors; assay: In vivo antitumor activity against NCI-H929 transplanted tumors; design: species or system NOD/SCID mice; conditions: QD; for growth of NCI-H929 transplanted tumors (in words): 3 mg/kg and 10 mg/kg; for Tumor inhibition rate TGI (%) / Average volume (mm^3) (Day 10) / Initial volume (mm^3): oral gavage; for Tumor inhibition rate TGI (%): 10 consecutive days; for Initial volume (mm^3): baseline
Description: In this example, the human multiple myeloma NCI-H929 cell line was used as the cell model. The inhibitory effects of compounds on the growth of NOD/SCID mouse transplanted tumors of NCI-H929 tumor cells were determined. The evaluation methods and results are described below.
Human multiple myeloma NCI-H929 cells were routinely cultured in RPMI1640 containing 10% fetal bovine serum at 37°C in a 5% CO2 incubator. After three passages in vitro, when the cells reached over 80% confluence and the required confluence rate, the cells were digested and harvested. After washing with PBS, the cells were counted and the cell concentration was adjusted to approximately 5 × 10^7 cells/mL. The cells were then placed in 4 mL centrifuge tubes on ice for later use.
Female NOD/SCID mice aged 4-5 weeks were selected and subcutaneously inoculated with NCI-H929 cells ectopically. The mice were held in a lateral position, the forelimb axilla was disinfected with 75% alcohol, and 100 µL of the cell suspension was injected subcutaneously into the axilla using a 1 mL syringe ([…]/100 µL).
After the tumors grew to 90-150 mm^3, the animals were randomly divided into groups, 8 mice in each group, and administered according to different administration methods as follows: • Model control group: Administered with the same volume of Vehicle (DMSO: 0.5% sodium carboxymethyl cellulose: distilled water = 1:1:8) daily by gavage; • Control drug group 1: administered with pomalidomide solution at 10 mg/kg (mouse body weight) daily by gavage; • Control drug group 2: administered with CC-220 solution at 3 mg/kg (mouse body weight) daily by gavage; • Control drug group 3: administered with CC-220 solution at 10 mg/kg (mouse body weight) daily by gavage; • Experimental compound group 4: administered with compound I-4 solution at 3 mg/kg (mouse body weight) daily by gavage; • Experimental compound group 5: administered with compound I-4 solution at 10 mg/kg (mouse body weight) daily by gavage; • Experimental compound group 6: administered with compound I-8 solution at 3 mg/kg (mouse body weight) daily by gavage; • Experimental compound group 7: administered with compound I-8 solution at 10 mg/kg (mouse body weight) daily by gavage;
The route of administration was oral gavage, and the administration frequency was once daily, for 10 consecutive days. The first day of administration was defined as Day 1 of the experiment. Tumor volume changes in mice were measured and recorded every two days. Tumor volume was measured using a vernier caliper, in which the major axis (a) and minor axis (b) of the tumor were measured, and the tumor volume was calculated as tumor volume V (mm^3) = a x b^2/2. After the experiment, the mice were dissected and the tumor weight was measured. The data were entered and statistically analyzed using GraphPad Prism 6 software. The data are expressed as mean ± SEM (Standard Error of Mean), and one-way ANOVA was used. P ≤ 0.05 was considered statistically significant.

[2] = system: RPMI-8226-pomalidomide-R cells; assay: Antiproliferative activity against resistant cells, CCK-8 assay; assay type: cell-based; conditions: Homo sapiens, 144 hours incubation
Description: (§1) In this example, lenalidomide-resistant human multiple myeloma cells, including NCI-H929 (NCI-H929-Lenalidomide-R) and RPMI-8226 (RPMI-8226-Lenalidomide-R), and pomalidomide-resistant human multiple myeloma cells, including NCI-H929 (NCI-H929-pomalidomide-R) and RPMI-8226 (RPMI-8226-pomalidomide-R), were selected as cell models to determine the inhibitory activity of compound I-8 of the present invention against the proliferation of the resistant cells.
(§2) • ① I-8 was dissolved in DMSO to prepare a 10 mM stock solution. Compounds used within three months should be stored at room temperature in a desiccator; others could be stored at -20°C for long-term storage. • ② The I-8 stock solution and the reference compounds lenalidomide and pomalidomide were all diluted with DMSO. Their initial concentrations were 10 µM. In the experiments of lenalidomide-resistant human multiple myeloma cells (NCI-H929 (NCI-H929-Lenalidomide-R) and RPMI-8226 (RPMI-8226-Lenalidomide-R) and pomalidomide-resistant human multiple myeloma cells (NCI-H929 (NCI-H929-pomalidomide-R) and RPMI-8226 (RPMI-8226-pomalidomide-R), 3-fold serial dilution with 11 concentration points was performed, with the lowest concentration of […]. The resulting solutions were shaken on a shaker for 5 minutes.
(§3) • ① The NCI-H929-Lenalidomide-R, RPMI-8226-Lenalidomide-R, NCI-H929-pomalidomide-R, and RPMI-8226-pomalidomide-R cells in logarithmic growth phase were inoculated in a 96-well plate, 20,000 to 30,000 cells per well, and the plate was pre-cultured for 24 hours in an incubator (at 37°C and 5% CO2). • ® The culture medium in the plate was replaced, and the compounds and the positive controls with corresponding concentrations were added to the plated at a volume of 50 µL. • ③ The plate was incubated for 144 hours in an incubator, then 15 µL of CCK-8 solution was added to each well, and the plate was incubated in the incubator for another 1-4 hours. • ④ The absorbance at 450 nm was measured using a microplate reader.
(§4) • ① Calculating % Inhibition: [formula] • ② Calculating IC50 value of compound and plotting dose-response curve: The IC50 value was calculated by fitting the % Inhibition and the logarithm of compound concentration to a nonlinear regression (dose response-variable slope) by using GraphPad 6.0. Y = Bottom + (Top−Bottom)/(1+10^(∧)((LogIC50−X)*HillSlope)) [formula] X: log of inhibitor concentration; Y: % Inhibition.
(§5) After calculating % Inhibition, a dose-response curve was plotted with the logarithm of the test compound concentration as the x-axis and the average cell viability as the y-axis, and the IC50 value was obtained by fitting.

[3] = system: RPMI-8226-Lenalidomide-R cells; assay: as above; assay type: cell-based; conditions: Homo sapiens, 144 hours incubation
Description: as §1, §2, §3, §4, §5

[4] = system: NCI-H929-Lenalidomide-R cells; assay: as above; assay type: cell-based; conditions: Homo sapiens, 144 hours incubation
Description: as §1, §2, §3, §4, §5

[5] = system: NCI-H929-pomalidomide-R cells; assay: as above; assay type: cell-based; conditions: Homo sapiens, 144 hours incubation
Description: as §1, §2, §3, §4, §5

| SMILES | growth of NCI-H929 transplanted tumors (in words) [1] | Tumor inhibition rate TGI (%) ([1]; 3 mg/kg) | Average volume (mm^3) (Day 10) ([1]; 3 mg/kg) | Initial volume (mm^3) ([1]; 3 mg/kg) | Tumor inhibition rate TGI (%) ([1]; 10 mg/kg) | Average volume (mm^3) (Day 10) ([1]; 10 mg/kg) | Initial volume (mm^3) ([1]; 10 mg/kg) | IC50 [2] [µM] | IC50 [3] [µM] | IC50 [4] [µM] | IC50 [5] [µM] |
| --- | --- | --- | --- | --- | --- | --- | --- | --- | --- | --- | --- |
| CN1Cc2c(N)cccc2C(=O)N1C1CCC(=O)NC1=O (stereo not shown) [I-4, 3-(5-amino-3-methyl-1-oxo-3,4-dihydrophthalazin-2(1H)-yl)piperidin-2,6-dione] | significantly inhibited the growth | 66.53 | 843.1 | 191.6 | 92.82 | 344.5 | 204.8 |  |  |  |  |
| CN1Cc2c(NCc3ccc(CN4CCN(c5ccc(C#N)c(F)c5)CC4)cc3)cccc2C(=O)N1C1CCC(=O)NC1=O (stereo not shown) [I-8] | significantly inhibited the growth | 84.25 | 500.1 | 193.5 | 100.72 | 197.3 | 211.3 | 0.314 | 0.246 | 0.055 | 0.095 |
| Nc1cccc2c1C(=O)N(C1CCC(=O)NC1=O)C2=O (stereo not shown) [Pomalidomide, reference compound] |  |  |  |  | 80.09 | 573.1 | 185.6 | > 100 | > 100 | > 100 | > 100 |
